Assay: Polymorphic stability of crystalline Form-R
Type: physicochemical
Settings: at various conditions (not specified)

CN(C)C/C=C/C(=O)Nc1cc2c(Nc3ccc(F)c(Cl)c3)ncnc2cc1O[C@H]1CCOC1.O=C(O)/C=C\C(=O)O [Form-R, N-[4-[(3-chloro-4-fluorophenyl)amino]-7-[[(3S)-tetrahydro-3-furanyl]oxy]-6-quinazolinyl]-4-(dimethylamino)-(2E)-2-butenamide (2Z)-2-butenedioate (1:2)]
stability of the crystalline form / conversion to other crystalline forms: stable at various conditions and does not convert to any of the other crystalline forms
